Tests used:
CEM C7 = assay: MTT cell viability assay, CEM C7; assay type: cell-based, human; settings: Homo sapiens; CEM C7, 48 hrs
Experimental: (§1) Human cervical cancer cell lines (HeLa, ME-180 and SiHa), brain tumor cell lines (U87MG, U373MG, U87MG EGFRvIII, T98G, A172 and LN229), lymphoid leukemia (MOLT-3, MOLT-4, REH and CEMC-7), myloid leukemia (K562), pancreatic cancer (MIAPaCa-2, AsPC-1, Panc-1 and Panc 10.05), lung cancer (A549) and colon cancer (HCT116 and SW480) cell lines from American Type Culture Collection, Manassas, Va., USA were grown in IMDM or RPMI (cell specific) Medium supplemented with 10% fetal bovine serum and 1% antibiotic-antimycotic. Cells were cultured in 37° C. in an atmosphere of 5% CO2.
(§2) Viability of cancer cell lines after treatment as at the indicated times was determined by MTT assay. Briefly, 10,000 cells were plated in triplicate in 96 well plates and incubated for 24 and 48 hours in complete media in presence of varying dose of mahanine (0-50 μM). 100 ug MTT was added in each well. Incubate the plate for 1-4 hours at 37° C. and humidified 5% CO2 atmosphere. Absorbance was recorded at 550 nm with 96 well plate readers.

REH = assay: MTT cell viability assay, REH; assay type: cell-based, human; settings: Homo sapiens, 48 hrs
Experimental: as §1, §2

U373MG = assay: MTT cell viability assay, U373MG; assay type: cell-based, human; settings: Homo sapiens, U373 MG, 48 hrs
Experimental: as §1, §2

LN229 = assay: MTT cell viability assay, LN229; assay type: cell-based, human; settings: Homo sapiens, LN-229; LN229, 48 hrs
Experimental: as §1, §2

A172 = assay: MTT cell viability assay, A172; assay type: cell-based, human; settings: Homo sapiens, A 172; A172, 48 hrs
Experimental: as §1, §2

Panc10.05 = assay: MTT cell viability assay, Panc10.05; assay type: cell-based, human; settings: Homo sapiens, Panc1005; Panc10.05, 48 hrs
Experimental: as §1, §2

SW480 = assay: MTT cell viability assay, SW480; assay type: cell-based, human; settings: Homo sapiens; SW480, 48 hrs
Experimental: as §1, §2

HeLa = assay: MTT cell viability assay, HeLa; assay type: cell-based, human
Experimental: as §1, §2

SiHa = assay: MTT cell viability assay, SiHa; assay type: cell-based; settings: Homo sapiens, 48 hr
Experimental: as §1, §2

[1] = tested on: glioma (T98G) and cervical (HeLa) cancer cells; assay: Comparative cytotoxicity of mahanine and analogs by MTT; assay type: cell-based, human
Experimental: as §1, §2

Hsp90-Cdc37 complex = assay: Co-immunoprecipitation of Hsp90-Cdc37 complex; assay type: cell-based, human
Experimental: Different human cancer cells (1×10^6 cells) were incubated with complete medium alone or with different dose of Mahanine (10-20 μM) as indicated. Cells were detached using trypsin-EDTA solution. They were collected by centrifugation at 1500 g for 10 mins and lysed by sonication. Aliquots containing 60 μg total cellular protein were separated by 10% SDS-PAGE and transferred to nitrocellulose membrane (MILIPORE, Bedford, Mass., USA). Membrane was blocked with blocking buffer for 1 hour at room temperature and probed with desired primary antibody Hsp90, Hsp70, Hsp40, p23, HOP, Cdc37, B-Raf, Stat-3, Bcl-xl, Akt, PARP, β-actin (Cell signaling technology, USA) and caspase-3 (Santa Cruz, USA), caspase9, cytochrome c (cell signaling technology, USA) for overnight at 4° C. followed by HRP conjugated secondary antibody and detected by ECL. For the detection of association of the Hsp90-Cdc37, Hsp90-p23 and Hsp90-HOP, total cell lysate (400 μg) was treated with anti-Hsp-90 antibody (1:100 dilutions) and incubated overnight at 4° C. The chaperonic complex was resolved by SDS-PAGE (10%), transferred and probed separately with anti-Cdc37, anti-HOP, anti-p23 and anti-Hsp-90 antibodies. In the few immunoprecipitation experiments anti-Cdc37 used as precipitating antibody and Hsp90 was used as detection antibody. For the proteasomal inhibition assay cells were pretreated with 10 μM MG132 for 1 hr and then cells are exposed in 20 μM mahanine for 24 hrs. For proteasomal inhibition assay at 6 hrs incubation in MIAPaCa-2, cells were pre-incubated with 20 μM MG132 for 1 hr and then cells were exposed in 30 μM mahanine.

[2] = tested on: intracellular Ca2+ in MIAPaCa-2; assay: Intracellular Ca2+ measurement (Fluo-3/AM); assay type: cell-based, human; settings: MIAPaCa-2, with and without extra-cellular Ca2+
Experimental: MIAPaCa-2 cells (3×10^6), treated with mahanine, were washed in 1× Hanks Balanced Salt Solution (HBSS) [Gibco, Invitrogen Corporation, USA] and then loaded with Fluo-3/AM (2 μM, Calbiochem, Germany) in HBSS containing 1.26 mM CaCl2. The cells were incubated at 37° C. for 30 min in dark with gentle agitation. All extracellular Fluo-3/AM was removed by two-three times washing in aforesaid buffer. The level of cytoplasmic Ca^2+ within Fluo-3/AM loaded MIAPaCa-2 was determined in time dependent manner in the absence and presence of CaCl2 (1.26 mM CaCl2).

[3] = tested on: endoplasmic reticulum (ER) stress in MIAPaCa-2 cells; assay: ER-Tracker Blue-White DPX confocal microscopy; assay type: cell-based, human; settings: MIAPaCa-2, 18 hrs, 10 μM and 20 μM mahanine
Experimental: MIAPaCa-2 cells were seeded in 8 chambered polystyrene culture slide [BD Falcon, USA] at […] cells per well in RPMI-1640 medium supplemented with 10% FBS. After 24 hrs of seeding, cells were exposed to different concentration of mahanine along with vehicle control. Cells were washed with 1× Hanks Balanced Salt Solution (HBSS) after 18 hrs of incubation and processed for ER staining. Pre-warmed ER-Tracker Blue White DPX (Molecular Probes) was added to the cells at 500 nM working concentration and incubated for 30 mins at 37° C. at 5% CO2 incubator. The loading solution was removed and cells were then washed again in HBSS and samples were analyzed using confocal laser scanning microscope (NICON A1-R, NICON, Japan). Images were recorded using 60×/1.40 oil plan Apo-N objectives at calibrated magnification.

[4] = Tissue toxicity in K562 xenograft bearing nude mice; assay type: in vivo

SMILES: CC(C)=CCCC1(C)C=Cc2c(c(C)cc3c2[nH]c2cc(O)ccc23)O1 (centres unmarked) [Mahanine, mahanine]
- IC50 (CEM C7): 10.2 ± 0.1 µM
- IC50 (REH): 11.6 ± 0.7 µM
- IC50 (U373MG): 16.8 ± 0.6 µM
- IC50 (LN229): 13.7 ± 0.3 µM
- IC50 (A172): 11.6 ± 1 µM
- IC50 (Panc10.05): 18.5 ± 1.6 µM
- IC50 (SW480): 16 ± 0.3 µM
- IC50 (HeLa; 48 hrs): 13.2 ± 1.1 µM
- IC50 (HeLa; Homo sapiens, 48 h): 10.9 µM
- IC50 (SiHa): 14.5 µM
- fold less IC50 of mahanine compared to mahanimbine [1]: 2-2.5 fold
- dose needed to initiate dissociation of Hsp90-Cdc37 (Hsp90-Cdc37 complex; HeLa, 24 hr): 17.5 µM
- dose adequate to begin Hsp90-Cdc37 dissociation (Hsp90-Cdc37 complex; MIAPaCa2, 24 hr): 12.5 µM
- dose showing significant decrease of association of Hsp90-Cdc37 complex (Hsp90-Cdc37 complex; U87MG, 24 hr): 15 µM
- time to maximum enhancement of intracellular Ca2+ pool [2]: ≤ 15 min
- ER-Tracker staining (ER stress) [3]: significantly increased blue staining
- toxicity towards nonspecific tissues (lung, liver, spleen) [4]: no toxic effect
